Assay results: patent publication US20240190892A1, “PLASMA KALLIKREIN INHIBITORS” (Merck Sharp & Dohme LLC, priority 2021, published 2024)

Columns and labels:
Coagulation factor XIa = Coagulation factor XIa (Homo sapiens (Human), UniProt P03951); experiment: Factor XIa Assay; type: biochemical; settings: human factor XIa 0.04 nM, substrate GPR-AFC, 30 min pre-incubation at 25° C., pH 7.4; read-out: FXIa IC50
Experimental: (§1) The effectiveness of a compound of the present invention as an inhibitor of Coagulation factor XIa can be determined using a relevant purified serine protease, and an appropriate synthetic substrate. The rate of hydrolysis of the chromogenic or fluorogenic substrate by the relevant serine protease was measured both in the absence and presence of compounds of the present invention. Assays were conducted at rt or at 37° C. […] A decrease in the rate of fluorescence change in the presence of inhibitor is indicative of enzyme inhibition. Such methods are known to one skilled in the art. The results of this assay are expressed as the half-maximal inhibitory concentrations (IC50), or the inhibitory constant, Ki.
Compounds were pre-incubated for 30 min at 25° C. with human (0.04 nM) factor XIa in 50 mM HEPES buffer with 150 mM sodium chloride, 5 mM calcium chloride, 0.1% PEG 8000, pH 7.4. factor XIa enzymatic activity was determined by addition of the substrate glycine-proline-arginine-7-amido-4-trifluoromethylcoumarin (GPR-AFC) and measurement of the fluorescence at 400/505 nm after a 60 min incubation at 25° C. The % inhibition for each data point was calculated from the data and analyzed using the log (inhibitor) vs. response four parameters equation to determine the half-maximal inhibitory concentrations (IC50). The IC50 were converted to equilibrium inhibitory constants (Ki) using the Cheng-Prusoff equation.

Human plasma kallikrein = Human plasma kallikrein (Homo sapiens (Human), UniProt P03952); experiment: Plasma Kallikrein Assay; type: biochemical; settings: purified Human plasma kallikrein 0.5 nM, substrate Acetyl-K-P-R-AFC, pH 7.4; read-out: PKal IC50
Chain of Human plasma kallikrein (P03952 391-638 limits assumed): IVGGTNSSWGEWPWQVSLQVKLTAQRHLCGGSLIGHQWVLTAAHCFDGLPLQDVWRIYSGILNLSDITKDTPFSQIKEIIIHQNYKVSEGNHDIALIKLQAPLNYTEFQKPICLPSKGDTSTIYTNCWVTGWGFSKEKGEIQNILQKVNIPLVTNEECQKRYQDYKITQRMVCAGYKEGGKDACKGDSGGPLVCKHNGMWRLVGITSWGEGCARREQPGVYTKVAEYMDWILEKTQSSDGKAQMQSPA
Chain of Human plasma kallikrein (P03952 20-390 partner limits assumed): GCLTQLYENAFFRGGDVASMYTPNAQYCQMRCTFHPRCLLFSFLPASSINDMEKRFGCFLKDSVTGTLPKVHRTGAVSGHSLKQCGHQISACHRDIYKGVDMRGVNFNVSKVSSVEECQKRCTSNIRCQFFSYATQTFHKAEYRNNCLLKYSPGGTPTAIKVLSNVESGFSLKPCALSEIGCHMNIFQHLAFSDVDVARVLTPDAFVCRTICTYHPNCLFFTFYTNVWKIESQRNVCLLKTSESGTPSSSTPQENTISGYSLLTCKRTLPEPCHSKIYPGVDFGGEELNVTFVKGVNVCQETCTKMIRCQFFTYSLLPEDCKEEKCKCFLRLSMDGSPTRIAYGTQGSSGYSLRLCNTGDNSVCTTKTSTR
Experimental: as §1, with “plasma kallikrein” for “Coagulation factor XIa”
Plasma kallikrein determinations were made in 50 mM HEPES buffer at pH 7.4 containing 150 mM NaCl, 5 mM CaCl2, and 0.1% PEG 8000 (polyethylene glycol; Fisher Scientific). Determinations were made using purified Human plasma kallikrein at a final concentration of 0.5 nM (Enzyme Research Laboratories) and the synthetic substrate, Acetyl-K-P-R-AFC (Sigma #C6608) at a concentration of […].
Activity assays were performed by diluting a stock solution of substrate at least tenfold to a final concentration ≤0.2 Km into a solution containing enzyme or enzyme equilibrated with inhibitor. Times required to achieve equilibration between enzyme and inhibitor were determined in control experiments. The reactions were performed under linear progress curve conditions and fluorescence increase measured at 405 Ex/510 Em nm. Values were converted to percent inhibition of the control reaction (after subtracting 100% Inhibition value). IC50 was determined by inflection point from a four parameter logistic curve fit. Ki was calculated using the Cheng Prusoff equation, Ki=IC50/(1+[S]/Km)).

Chain of Coagulation factor XIa (P03951 388-625 limits assumed): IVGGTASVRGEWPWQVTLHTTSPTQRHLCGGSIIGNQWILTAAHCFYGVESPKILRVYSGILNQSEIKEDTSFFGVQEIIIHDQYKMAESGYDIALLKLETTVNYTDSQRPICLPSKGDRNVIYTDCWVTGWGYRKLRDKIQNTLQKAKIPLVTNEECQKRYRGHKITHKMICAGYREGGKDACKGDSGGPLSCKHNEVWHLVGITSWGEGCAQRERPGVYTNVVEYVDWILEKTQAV
Chain of Coagulation factor XIa (P03951 19-387 partner limits assumed): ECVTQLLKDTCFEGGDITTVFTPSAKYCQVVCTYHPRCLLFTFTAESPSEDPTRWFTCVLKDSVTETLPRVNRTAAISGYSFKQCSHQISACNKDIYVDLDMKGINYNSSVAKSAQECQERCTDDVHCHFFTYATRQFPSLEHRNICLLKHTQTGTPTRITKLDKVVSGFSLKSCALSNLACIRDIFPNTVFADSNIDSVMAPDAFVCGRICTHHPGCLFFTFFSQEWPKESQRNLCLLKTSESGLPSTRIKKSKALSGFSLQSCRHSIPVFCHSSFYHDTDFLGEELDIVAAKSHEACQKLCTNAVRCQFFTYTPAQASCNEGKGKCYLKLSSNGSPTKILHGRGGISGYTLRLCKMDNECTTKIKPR

SMILES	IC50 (Coagulation factor XIa) [µM]	IC50 (Human plasma kallikrein) [µM]
COCC1CN(c2ccc(CNC(=O)c3cnnc(N4CC[C@]5(C4)OC(=O)Nc4ccc(Cl)c(F)c45)c3)cn2)C1 [Example 27, (S)-6-(6-Chloro-5-fluoro-2-oxo-1,2-dihydrospiro[benzo[d][1,3]oxazine-4,3′-pyrrolidin]-1′-yl)-N-((6-(3-(methoxymethyl)azetidin-1-yl)pyridin-3-yl)methyl)pyridazine-4-carboxamide]	10	0.0143
O=C1Nc2ccc(Cl)c(F)c2[C@]2(CCN(c3cncc(C(=O)NCc4ccc(N5CCOCC5)nc4)n3)C2)O1 [Example 42, (S)-6-(6-Chloro-5-fluoro-2-oxo-1,2-dihydrospiro[benzo[d][1,3]oxazine-4,3′-pyrrolidin]-1′-yl)-N-((6-morpholinopyridin-3-yl)methyl)pyrazine-2-carboxamide]	10	0.0118
O=C1Nc2ccc(Cl)c(F)c2[C@]2(CCN(c3cncc(C(=O)NCc4ccc(N5CC[C@@H](F)C5)nc4)n3)C2)O1 [Example 39, (S)-6-(6-Chloro-5-fluoro-2-oxo-1,2-dihydrospiro[benzo[d][1,3]oxazine-4,3′-pyrrolidin]-1′-yl)-N-((6-((R)-3-fluoropyrrolidin-1-yl)pyridin-3-yl)methyl)pyrazine-2-carboxamide]	10	0.0258
O=C(Cc1ccc(Cn2ccccc2=O)cc1)Nc1cncc(N2CC[C@]3(C2)OC(=O)Nc2ccc(Cl)c(F)c23)c1 [Example 52, (S)-N-(5-(6-Chloro-5-fluoro-2-oxo-1,2-dihydrospiro[benzo[d][1,3]oxazine-4,3′-pyrrolidin]-1′-yl)pyridin-3-yl)-2-(4-((2-oxopyridin-1(2H)-yl)methyl)phenyl)acetamide]	10	0.019
O=C1Nc2ccc(Cl)c(F)c2[C@]2(CCN(c3cc(C(=O)NCc4ccc(CN5CC(F)C5)cc4)cnn3)C2)O1 [Example 47, (S)-6-(6-chloro-5-fluoro-2-oxo-1,2-dihydrospiro[benzo[d][1,3]oxazine-4,3′-pyrrolidin]-1′-yl)-N-(4-((3-fluoroazetidin-1-yl)methyl)benzyl)pyridazine-4-carboxamide]	10	0.0138
O=C1Nc2ccc(Cl)c(F)c2[C@]2(CCN(c3cc(C(=O)NCc4ccc(N5CCC(F)(F)C5)nc4)cnn3)C2)O1 [Example 6, (S)-6-(6-Chloro-5-fluoro-2-oxo-1,2-dihydrospiro[benzo[d][1,3]oxazine-4,3′-pyrrolidin]-1′-yl)-N-((6-(3,3-difluoropyrrolidin-1-yl)pyridin-3-yl)methyl)pyridazine-4-carboxamide]	10	0.004
CN1CCN(c2ccc(CNC(=O)c3cnnc(N4CC[C@]5(C4)OC(=O)Nc4ccc(Cl)c(F)c45)c3)cn2)CC1 [Example 28, (S)-6-(6-Chloro-5-fluoro-2-oxo-1,2-dihydrospiro[benzo[d][1,3]oxazine-4,3′-pyrrolidin]-1′-yl)-N-((6-(4-methylpiperazin-1-yl)pyridin-3-yl)methyl)pyridazine-4-carboxamide]	10	0.0019
Cc1cnn(Cc2ccc(CNC(=O)c3cncc(N4CC[C@]5(C4)OC(=O)Nc4ccc(Cl)c(F)c45)n3)cc2)c1 [Example 18, (S)-6-(6-Chloro-5-fluoro-2-oxo-1,2-dihydrospiro[benzo[d][1,3]oxazine-4,3′-pyrrolidin]-1′-yl)-N-(4-((4-methyl-1H-pyrazol-1-yl)methyl)benzyl)pyrazine-2-carboxamide]	10	0.0128
O=C1Nc2ccc(Cl)c(F)c2[C@]2(CCN(c3cc(C(=O)NCc4ccc(Cn5ccccc5=O)cc4)ccn3)C2)O1 [Example 16, (S)-2-(6-Chloro-5-fluoro-2-oxo-1,2-dihydrospiro[benzo[d][1,3]oxazine-4,3′-pyrrolidin]-1′-yl)-N-(4-((2-oxopyridin-1(2H)-yl)methyl)benzyl)isonicotinamide]	10	0.05
O=C1Nc2ccc(Cl)c(F)c2[C@]2(CCN(c3cncc(C(=O)NCc4ccc5ccc(=O)oc5c4)n3)C2)O1 [Example 30, (S)-6-(6-Chloro-5-fluoro-2-oxo-1,2-dihydrospiro[benzo[d][1,3]oxazine-4,3′-pyrrolidin]-1′-yl)-N-((2-oxo-2H-chromen-7-yl)methyl)pyrazine-2-carboxamide]	10	0.0209
O=C1Nc2ccc(Cl)c(F)c2[C@]2(CCN(c3cc(C(=O)NCc4ccc(Cn5ccccc5=O)cc4)cnn3)C2)O1 [Example 17, (S)-6-(6-Chloro-5-fluoro-2-oxo-1,2-dihydrospiro[benzo[d][1,3]oxazine-4,3′-pyrrolidin]-1′-yl)-N-(4-((2-oxopyridin-1(2H)-yl)methyl)benzyl)pyridazine-4-carboxamide]	10	0.0163
C[C@H]1CCN(c2ccc(CNC(=O)c3cncc(N4CC[C@]5(C4)OC(=O)Nc4ccc(Cl)c(F)c45)n3)cn2)C1 [Example 1, (S)-6-(6-Chloro-5-fluoro-2-oxo-1,2-dihydrospiro[benzo[d][1,3]oxazine-4,3′-pyrrolidin]-1′-yl)-N-((6-((S)-3-methylpyrrolidin-1-yl)pyridin-3-yl)methyl)pyrazine-2-carboxamide]	10	0.0193
CCC(C)NCc1ccc(CNC(=O)c2cnnc(N3CC[C@]4(C3)OC(=O)Nc3ccc(Cl)c(F)c34)c2)cc1 (stereo partly drawn) [Example 45, N-(4-((sec-Butylamino)methyl)benzyl)-6-((S)-6-chloro-5-fluoro-2-oxo-1,2-dihydrospiro[benzo[d][1,3]oxazine-4,3′-pyrrolidin]-1′-yl)pyridazine-4-carboxamide]	10	0.0158
CN1CC(F)(F)CC1c1ccc(CNC(=O)c2cnnc(N3CC[C@]4(C3)OC(=O)Nc3ccc(Cl)c(F)c34)c2)cn1 (stereo in doubt) [Example 13, (S)-6-(6-Chloro-5-fluoro-2-oxo-1,2-dihydrospiro[benzo[d][1,3]oxazine-4,3′-pyrrolidin]-1′-yl)-N-((6-(4,4-difluoro-1-methylpyrrolidin-2-yl)pyridin-3-yl)methyl)pyridazine-4-carboxamide]	10	0.0816
O=C1Nc2ccc(Cl)c(F)c2[C@]2(CCN(c3cncc(C(=O)NCc4ccc(Cn5ccccc5=O)nc4)n3)C2)O1 [Example 14, (S)-6-(6-Chloro-5-fluoro-2-oxo-1,2-dihydrospiro[benzo[d][1,3]oxazine-4,3′-pyrrolidin]-1′-yl)-N-((6-((2-oxopyridin-1(2H)-yl)methyl)pyridin-3-yl)methyl)pyrazine-2-carboxamide]	10	0.0016
O=C1Nc2ccc(Cl)c(F)c2[C@]2(CCN(c3cncc(C(=O)NCc4ccc(N5CC(O)(C(F)(F)F)C5)nc4)n3)C2)O1 [Example 36, (S)-6-(6-Chloro-5-fluoro-2-oxo-1,2-dihydrospiro[benzo[d][1,3]oxazine-4,3′-pyrrolidin]-1′-yl)-N-((6-(3-hydroxy-3-(trifluoromethyl)azetidin-1-yl)pyridin-3-yl)methyl)pyrazine-2-carboxamide]	10	0.0437
N#CCCN(Cc1ccc(CNC(=O)c2cnnc(N3CC[C@]4(C3)OC(=O)Nc3ccc(Cl)c(F)c34)c2)cc1)C1CC1 [Example 49, (S)-6-(6-Chloro-5-fluoro-2-oxo-1,2-dihydrospiro[benzo[d][1,3]oxazine-4,3′-pyrrolidin]-1′-yl)-N-(4-(((2-cyanoethyl)(cyclopropyl)amino)methyl)benzyl)pyridazine-4-carboxamide]	10	0.0089
Cc1cnn(Cc2ccc(CNC(=O)c3ccnc(N4CC[C@]5(C4)OC(=O)Nc4ccc(Cl)c(F)c45)c3)cc2)c1 [Example 22, (S)-2-(6-Chloro-5-fluoro-2-oxo-1,2-dihydrospiro[benzo[d][1,3]oxazine-4,3′-pyrrolidin]-1′-yl)-N-(4-((4-methyl-1H-pyrazol-1-yl)methyl)benzyl)isonicotinamide]	10	0.0047
